Results from article PMC3114813 (Environmental Health Perspectives, 2011).
Where a chain is given by its changes, count along the chain named.

How the values were obtained:
androgen receptor (AR) [1] = target: T1, androgen receptor (AR) (Homo sapiens, UniProt P10275, Q868H); test: cell-based; conditions: for IC20: MDA-kb2, read-out: Antiandrogen IC20 (μM) MDA-kb2; for Antiandrogenic activity in the MDA-kb2 assay (in words): MDA-kb2 / 'our assay'; for ERR (environmental relevance ratio): total exposure score / IC20 (MDA-kb2), recalculated using experimental data
T1 construct: MDA-kb2 cells are human breast cancer cells stably transfected with a firefly luciferase reporter gene; endogenous in cells; host or cells: MDA-kb2 (human breast cancer cells)
T1 sequence (P10275 1-920 Q868H): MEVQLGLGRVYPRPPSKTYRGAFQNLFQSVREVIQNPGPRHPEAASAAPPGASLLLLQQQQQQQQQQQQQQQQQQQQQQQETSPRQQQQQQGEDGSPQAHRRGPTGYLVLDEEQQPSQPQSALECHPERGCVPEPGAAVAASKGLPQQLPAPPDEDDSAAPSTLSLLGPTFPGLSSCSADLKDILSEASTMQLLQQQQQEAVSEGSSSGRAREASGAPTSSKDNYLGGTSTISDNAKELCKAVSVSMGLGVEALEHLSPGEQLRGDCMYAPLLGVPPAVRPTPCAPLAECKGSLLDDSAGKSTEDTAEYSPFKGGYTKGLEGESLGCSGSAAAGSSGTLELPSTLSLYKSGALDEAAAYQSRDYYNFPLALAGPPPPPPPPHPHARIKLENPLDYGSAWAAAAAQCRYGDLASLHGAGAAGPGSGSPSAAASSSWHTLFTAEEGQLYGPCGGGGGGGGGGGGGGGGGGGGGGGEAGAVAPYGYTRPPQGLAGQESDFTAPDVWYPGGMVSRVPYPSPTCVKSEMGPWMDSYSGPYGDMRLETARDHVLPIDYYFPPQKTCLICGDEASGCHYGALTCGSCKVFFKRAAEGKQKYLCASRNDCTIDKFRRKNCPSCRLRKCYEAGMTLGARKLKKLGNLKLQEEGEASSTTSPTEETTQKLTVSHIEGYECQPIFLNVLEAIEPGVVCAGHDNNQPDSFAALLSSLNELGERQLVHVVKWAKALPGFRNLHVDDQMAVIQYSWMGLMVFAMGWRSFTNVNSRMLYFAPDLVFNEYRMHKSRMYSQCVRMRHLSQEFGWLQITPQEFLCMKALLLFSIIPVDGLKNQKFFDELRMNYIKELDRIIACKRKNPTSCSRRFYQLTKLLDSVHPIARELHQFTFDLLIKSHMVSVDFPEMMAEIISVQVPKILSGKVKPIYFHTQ
Protocol: (§1) MDA-kb2 cells are human breast cancer cells stably transfected with a firefly luciferase reporter gene that is driven by an androgen-response element–containing promoter ([Wilson et al. 2002]). Details of the modified assay were published previously ([Ermler et al. 2010]). Briefly, cells were seeded at a concentration of 1 × 10^5 cells/mL in phenol red–free Leibowitz-15 medium (Invitrogen Ltd., Paisley, UK) containing 10% (charcoal-stripped) fetal calf serum (Invitrogen Ltd.) in white luminometer plates and allowed to attach for 24 hr. Cells were then exposed to eight serial dilutions of selected pesticides with or without DHT (0.25 nM). After 24 hr, luciferase activity was determined with SteadyGlo assay reagent (Promega UK Ltd., Southampton, Hampshire, UK) and measured in a plate reader (FLUOstar Optima, BMG Labtech GmbH, Offenburg, Germany). […] All concentrations were tested in duplicate over two plates, and each pesticide was measured at least twice in separate experiments. For comparative purposes, luminescence was normalized to DHT alone at coexposure concentration (maximum response, 100%) and solvent-only (ethanol) controls (minimum response, 0%). […] Pesticides were initially tested over a concentration range of 0.64 nM–50 μM (5× dilutions) as a range-finding exercise. Subsequently, the concentration ranges were modified to reflect the potency and toxicity of each individual compound. […] Sixty percent of the pesticides were repeat tested using the same product but with new stock solutions and by a different experimenter.
(§2) To analyze antiandrogenic action, raw luminescence readings were normalized on a plate-by-plate basis to the means of the positive DHT controls (n = 8) and the solvent controls (n = 8) ([Ermler et al. 2010]). […] Specifically, a variety of nonlinear regression models were fitted independently to the same data set, and the best-fitting model was selected using a statistical goodness-of-fit criterion. […] Data considered to be statistically significant at p < 0.05 were analyzed using the best-fit approach as described above. All statistical analysis was performed using SAS statistical software (SAS Institute Inc., Cary, NC, USA). From the best-fitting model, we derived inhibitory concentrations for antiandrogenicity and effect concentrations for cytotoxicity.

androgen receptor (AR) [2] = target: T2, androgen receptor (AR) (Homo sapiens, UniProt P10275); test: cell-based; assay type: cell-based; conditions: for IC20: coincubated with DHT 6.4 nM, 53 hr at 28°C, Neg = no response was observed, read-out: Antiandrogen IC20 (μM) YAS
T2 construct: expressed in transfected cells; host or cells: yeast (YAS strain)
T2 sequence (P10275 1-920): T1 sequence (P10275 1-920 Q868H) with H868Q
Protocol: (§3) Briefly, stimulation of the transfected AR causes a color change in the media, which is measured by absorbance at 540 nm (Labsystems Multiskan Multisoft, Vienna, VA, USA). Plates were also measured at 620 nm to measure cell growth (turbidity) to check for any cytotoxic effects that may have occurred. […] Incubation time was 53 hr at 28°C. […] Pesticide serial dilutions were tested in duplicate over two plates and were tested in two separate experiments.
Specifically, a variety of nonlinear regression models were fitted independently to the same data set, and the best-fitting model was selected using a statistical goodness-of-fit criterion. […] Data considered to be statistically significant at p < 0.05 were analyzed using the best-fit approach as described above. All statistical analysis was performed using SAS statistical software (SAS Institute Inc., Cary, NC, USA). From the best-fitting model, we derived inhibitory concentrations for antiandrogenicity and effect concentrations for cytotoxicity.

MDA-kb2 cells = conditions: for Cytotoxic EC20 (μM) MDA-kb2: EC20 = concentration that produces a 20% effect
Protocol: as §1, §2

yeast = test: YAS, cytotoxicity (turbidity at 620 nm); assay type: cell-based; conditions: for Cytotoxic EC20 (μM) YAS: EC20 = concentration that produces a 20% effect, yeast turbidity
Protocol: as §3, with “The methods for the YAS have been described previously ([Sohoni and Sumpter 1998]). Briefly,” for “Briefly,”, “occurred. Pesticides were coincubated with DHT (6.4 nM).” for “occurred.”

androgen receptor (AR) [3] = target: T1, androgen receptor (AR); assay type: cell-based; conditions: androgenic in the absence of DHT; Neg = no response was observed
Protocol: as §1, §2

[4] = cited from earlier work; for Parent compound remaining on food commodities: stable on food commodities, ref EFSA 2007, 2010a, 2010b
aromatase = test system: aromatase; set-up: method as in Vinggaard et al. 2000; conditions: human placental microsomes; ref Vinggaard et al. 2000; cited from earlier work
[5] = set-up: method as in Lambright et al. 2000; Taxvig et al. 2007; conditions: ref Lambright et al. 2000; Taxvig et al. 2007; cited from earlier work
rats = conditions: 12 mg/kg body weight/day, ref EFSA 2005; cited from earlier work
adult male rats = conditions: 90 days, ref Ngoula et al. 2007, cited from earlier work

Compound: COc1ccc(C(=CC(=O)N2CCOCC2)c2ccc(Cl)cc2)cc1OC [Dimethomorph]
- IC20 (androgen receptor (AR) [1]): 0.263 µM
- Antiandrogenic activity in the MDA-kb2 assay (in words) (androgen receptor (AR) [1]): antiandrogenic
- ERR (environmental relevance ratio) (androgen receptor (AR) [1]): 45.6
- IC20 (androgen receptor (AR) [2]): 38.5 µM
- Cytotoxic EC20 (μM) MDA-kb2 (MDA-kb2 cells): > 25 µM
- Cytotoxic EC20 (μM) YAS (yeast): > 50 µM
- Androgen EC20 (μM) MDA-kb2 (androgen receptor (AR) [3]): Neg
- Parent compound remaining on food commodities [4]: > 70%

Compound: CCOc1ccc2c(c1)C(C)=CC(C)(C)N2 [Ethoxyquin]
- IC20 (androgen receptor (AR) [1]): 10.7 µM
- Antiandrogenic activity in the MDA-kb2 assay (in words) (androgen receptor (AR) [1]): in vitro AR antagonists
- ERR (environmental relevance ratio) (androgen receptor (AR) [1]): 0.75
- IC20 (androgen receptor (AR) [2]): 11.1 µM
- Cytotoxic EC20 (μM) MDA-kb2 (MDA-kb2 cells): > 50 µM
- Cytotoxic EC20 (μM) YAS (yeast): > 200 µM
- Androgen EC20 (μM) MDA-kb2 (androgen receptor (AR) [3]): Neg

Compound: CC1(C(=O)Nc2ccc(O)c(Cl)c2Cl)CCCCC1 [Fenhexamid]
- Cytotoxic EC20 (μM) MDA-kb2 (MDA-kb2 cells): 21.6 µM
- Parent compound remaining on food commodities [4]: > 70%

Compound: N#Cc1c[nH]cc1-c1cccc2c1OC(F)(F)O2 [Fludioxonil]
- Cytotoxic EC20 (μM) MDA-kb2 (MDA-kb2 cells): 28.5 µM
- Cytotoxic EC20 (μM) YAS (yeast): > 160 µM
- Parent compound remaining on food commodities [4]: > 70%

Compound: C=CCOC(Cn1ccnc1)c1ccc(Cl)cc1Cl (centres unmarked) [Imazalil]
- Cytotoxic EC20 (μM) MDA-kb2 (MDA-kb2 cells): 19.0 µM
- Aromatase inhibition (aromatase): inhibited aromatase

Compound: CON(C)C(=O)Nc1ccc(Cl)c(Cl)c1 [Linuron]
- Cytotoxic EC20 (μM) MDA-kb2 (MDA-kb2 cells): > 50 µM
- In vivo antiandrogen (in words) [5]: known in vivo antiandrogens

Compound: CCN(CC)c1nc(C)cc(OP(=S)(OC)OC)n1 [Pirimiphos-methyl]
- Cytotoxic EC20 (μM) MDA-kb2 (MDA-kb2 cells): > 50 µM
- Cytotoxic EC20 (μM) YAS (yeast): > 200 µM
- Testicular effect of maternal and postnatal exposure (rats): testicular tubular atrophy
- Unchanged parent compound on stored grain ([4]; stored grain, < 24 weeks, ref EFSA 2005): 70%
- Fertility (adult male rats; 125 mg/kg body weight/day): decreased fertility
- Sperm density and mobility (adult male rats; 125 mg/kg body weight/day): decreased sperm density and mobility
- Testicular atrophy, lowest observed adverse effect level (adult male rats): 41.67 mg/kg body weight/day

Compound: CCCN(CCOc1c(Cl)cc(Cl)cc1Cl)C(=O)n1ccnc1 [Prochloraz]
- Cytotoxic EC20 (μM) MDA-kb2 (MDA-kb2 cells): 12.5 µM
- Aromatase inhibition (aromatase): inhibited aromatase

Compound: CC12CC1(C)C(=O)N(c1cc(Cl)cc(Cl)c1)C2=O (centres unmarked) [Procymidone, reference compound]
- IC50 (androgen receptor (AR) [1]; MDA-kb2, internal quality control for antiandrogenicity): 0.53 µM
- IC20 (androgen receptor (AR) [1]): 0.163 µM
- Antiandrogenic activity in the MDA-kb2 assay (in words) (androgen receptor (AR) [1]): in vitro AR antagonists
- ERR (environmental relevance ratio) (androgen receptor (AR) [1]): 202.5
- IC20 (androgen receptor (AR) [2]): 0.956 µM
- Cytotoxicity in the MDA-kb2 assay (in words) (MDA-kb2 cells): nontoxic
- Cytotoxic EC20 (μM) MDA-kb2 (MDA-kb2 cells): > 50 µM
- Cytotoxic EC20 (μM) YAS (yeast): > 160 µM
- Androgen EC20 (μM) MDA-kb2 (androgen receptor (AR) [3]): Neg

Compound: CC(C)(C)C(O)(CCc1ccc(Cl)cc1)Cn1cncn1 (centres unmarked) [Tebuconazole]
- Cytotoxic EC20 (μM) MDA-kb2 (MDA-kb2 cells): 38.9 µM
- In vivo antiandrogen (in words) [5]: known in vivo antiandrogens

Compound: Cc1ccc(N(SC(F)(Cl)Cl)S(=O)(=O)N(C)C)cc1 [Tolylfluanid]
- Antiandrogen IC20 (μM) MDA-kb2 (androgen receptor (AR) [1]): Neg
- Antiandrogenic activity in the MDA-kb2 assay (in words) (androgen receptor (AR) [1]): lacked activity
- Antiandrogenic activity in the YAS (in words) (androgen receptor (AR) [2]; YAS): antiandrogenic
- IC20 (androgen receptor (AR) [2]): 0.234 µM
- Cytotoxicity in the MDA-kb2 assay (in words) (MDA-kb2 cells): cytotoxic
- Cytotoxic EC20 (μM) MDA-kb2 (MDA-kb2 cells): 8.09 µM
- Cytotoxic EC20 (μM) YAS (yeast): 1.14 µM
- Cytotoxicity in the YAS assay (in words) (yeast; YAS): cytotoxic
- Androgen EC20 (μM) MDA-kb2 (androgen receptor (AR) [3]): Neg

Compound: CCCC1COC(Cn2cncn2)(c2ccc(Cl)cc2Cl)O1 (centres unmarked) [propiconazole]
- Aromatase inhibition (aromatase): inhibited aromatase

Compound: CC(C)(C)C(=O)C(Oc1ccc(Cl)cc1)n1cncn1 (centres unmarked) [triadimefon]
- Aromatase inhibition (aromatase): inhibited aromatase

Compound: CC(C)(C)C(O)C(Oc1ccc(Cl)cc1)n1cncn1 (centres unmarked) [triadimenol]
- Aromatase inhibition (aromatase): inhibited aromatase
